Experiment: Cytotoxicity against human NCI60 cells
Assay type: functional

With CC(=O)O[C@H]1C(=O)[C@@]2(C)[C@H]([C@H](OC(=O)c3ccccc3)[C@]3(O)C[C@H](OC(=O)[C@H](O)[C@@H](NC(=O)[C@@](C)(Cl)[C@H](C)Cl)c4ccccc4)C(C)=C1C3(C)C)[C@]1(OC(C)=O)CO[C@@H]1C[C@@H]2O the GI50 was 0.21 µM, the LC50 (50% lethal concentration) was 32 µM and the TGI was 6.3 µM.

CC(=O)O[C@H]1C(=O)[C@@]2(C)[C@H]([C@H](OC(=O)c3ccccc3)[C@]3(O)C[C@H](OC(=O)[C@H](O)[C@@H](NC(=O)[C@](C)(Cl)[C@@H](C)Cl)c4ccccc4)C(C)=C1C3(C)C)[C@]1(OC(C)=O)CO[C@@H]1C[C@@H]2O gave a GI50 of 0.14 µM, an LC50 (50% lethal concentration) of 29 µM and a TGI of 4.2 µM.

CC(=O)O[C@H]1C(=O)[C@@]2(C)[C@H]([C@H](OC(=O)c3ccccc3)[C@]3(O)C[C@H](OC(=O)[C@H](O)[C@@H](NC(=O)c4ccccc4)c4ccccc4)C(C)=C1C3(C)C)[C@]1(OC(C)=O)CO[C@@H]1C[C@@H]2O [PACLITAXEL] showed a GI50 of 0.00065 µM and a TGI of 0.15 µM.

From ChEMBL document CHEMBL1158848, “Synthesis and separation of potential anticancer active dihalocephalomannine diastereomers from extracts of Taxus yunnanensis” (1998)
